Consider 34 compounds from ChEMBL document CHEMBL1149166, “Antimycobacterial agents. 1. Thio analogues of purine” (J Med Chem, 2004).

In experiment [1] the test system is Mycobacterium tuberculosis. In words: Lowest concentration of compound against Mtb H37Ra strain required to inhibit the growth completely; activity range is 2-4. The class given is functional.
The test system of experiment [2] is Mycobacterium tuberculosis. In words: Inhibitory activity against growth of Mycobacterium tuberculosis (Mtb) H37Ra Strain. The class given is functional.
The test system of experiment [3] is Mycobacterium tuberculosis. In words: Percent inhibitory activity against Mycobacterium tuberculosis H37Rv Strain at 6.25 ug/mL. The class given is functional.
For experiment [4], the system named is Mycobacterium tuberculosis. In words: Inhibitory activity against growth of Mycobacterium tuberculosis H37Rv Strain. Format: functional.
Experiment [5] has as its system Mycobacterium tuberculosis. In words: Concentration effecting […] reduction in the viable cell counts of mouse bone marrow macrophage monolayers containing Mtb Erdman after 7 days compared to controls. The class given is functional, organism-based. As to conditions: 168 h.
Experiment [6] can be described thus: Selective index is […]. The class given is functional.
Experiment [7] concerns Mycobacterium tuberculosis. In words: Lowest concentration of compound against Mtb H37Ra strain required to inhibit the growth completely. The class given is functional.
The test system of experiment [8] is Mycobacterium tuberculosis. In words: Percent inhibitory activity against Mycobacterium tuberculosis (Mtb) H37Rv Strain at 12.25 ug/mL. The class given is functional.
For experiment [9], the system named is Mycobacterium tuberculosis. Description: Inhibitory activity against growth of Mycobacterium tuberculosis (Mtb) H37Ra Strain; Activity showed partial growth inhibition representing an estimated 50% or more. The class given is functional.

≈ marks a conversion by molar mass, not a printed value.

In general, MIC refers to the lowest concentration that inhibits growth of the organism. In experiment [1], `CC[C@@H](CO)NCCN[C@@H](CC)CO` [ETHAMBUTOL] registered an MIC of 4 µg/mL (≈ 19.6 µM).
In general, inhibition refers to how much of the control response was suppressed. Higher therefore signals a response far below the control. The MIC90 is the lowest concentration that inhibits either 90% of growth or 90% of the strains tested, depending on the study. High values mean lower susceptibility, low ones higher susceptibility. Consider `CCCCCCCCCCSc1ncnc2c1ncn2CC(=O)Oc1ccccc1`, for which the MIC in experiment [2] was > 12.8 µg/mL. This compound also displayed an inhibition at 6.25 µg/mL in experiment [3] of 0%. Besides, the MIC90 in experiment [4] was > 6.25 µg/mL.
In the same order, the values of `CCOC(=O)Cn1cnc2c(Sc3ccc(C)cc3)ncnc21` are > 12.8 µg/mL, 99% and > 6.25 µg/mL.
As usually defined, the EC50 is the concentration needed to bring the measured effect to its halfway point. With `CCCCCCCCCCCSc1[nH]cnc2ncnc1-2`, the MIC in [2] was > 12.8 µg/mL. Further, in experiment [3], at 6.25 µg/mL the inhibition was 98%. In experiment [4], this compound returned an MIC90 of 3.13 µg/mL (≈ 10.2 µM). In experiment [5], this compound had an EC50 of 2.54 µg/mL (≈ 8.29 µM).
Take `CCCCCCCCCCCCSc1ncnc2c1ncn2CC(=O)OCC`: the SI in experiment [6] was > 12.8. In experiment [3], this compound showed an inhibition at 6.25 µg/mL of 98%. Further, in experiment [4], the MIC90 was 0.78 µg/mL (≈ 1.92 µM). The same compound gave an MIC in experiment [7] of 8 µg/mL (≈ 19.7 µM).
As for `Cc1cccc(Sc2[nH]cnc3ncnc2-3)c1`, the MIC in experiment [2] was > 12.8 µg/mL. Moreover, 12.25 µg/mL produced 99% inhibition in [8]. Moreover, in [4], the MIC90 is > 12.5 µg/mL.
As to `Oc1nc(SCc2ccccc2)c2[nH]cnc2n1`, the MIC in experiment [2] is > 12.8 µg/mL. The compound further came in with an inhibition at 6.25 µg/mL in experiment [3] of 94%. Further, the MIC90 in experiment [4] was > 6.25 µg/mL.
As to `Oc1nc(SCc2ccccc2F)c2[nH]cnc2n1`, 6.25 µg/mL produced 50% inhibition in experiment [3]. Besides, the MIC90 in [4] was > 6.25 µg/mL. In experiment [7], the minimum inhibitory concentration (MIC) is > 8 µg/mL.
In the case of `COc1cccc(CSc2[nH]c(O)nc3ncnc2-3)c1`, the MIC in experiment [2] was > 16 µg/mL. The compound also had an inhibition at 6.25 µg/mL in [3] of 59%. Further, the MIC90 in experiment [4] is > 6.25 µg/mL.
Regarding `c1ccc(CSc2ncnc3[nH]cnc23)cc1`, the MIC in experiment [2] is > 12.8 µg/mL. Moreover, testing at 12.25 µg/mL in experiment [8] gave an inhibition of 52%. In addition, the MIC90 in experiment [4] is > 12.5 µg/mL.
For the compound `Oc1nc(SCc2ccc(F)cc2C(F)(F)F)c2[nH]cnc2n1`, the minimal inhibitory concentration (MIC) in experiment [2] was > 16 µg/mL. For the same compound, 6.25 µg/mL produced 50% inhibition in experiment [3].
Turning to `Cc1ccccc1Sc1[nH]c(Cl)nc2ncnc1-2`, the MIC in experiment [2] is > 12.8 µg/mL. Moreover, in [3], testing at 6.25 µg/mL gave an inhibition of 72%. In addition, in experiment [4], the MIC90 is > 6.25 µg/mL.
Regarding `CCOC(=O)Cn1cnc2c(SCc3cc(Cl)ccc3F)nc(O)nc21`, in [3], at 6.25 µg/mL the inhibition was 17%. Further, the MIC90 in [4] is > 6.25 µg/mL. For the same compound, in [7], the lowest concentration to inhibit growth (MIC) was 4 µg/mL (≈ 10.1 µM).
For `CCOC(=O)Cn1cnc2c(SCc3ccccc3F)nc(O)nc21`, the inhibition at 6.25 µg/mL in experiment [3] worked out at 22%. Further, in experiment [4], the MIC90 is > 6.25 µg/mL. The compound also showed a minimum inhibitory concentration (MIC) in experiment [7] of 4 µg/mL (≈ 11 µM).
In [2], `CCOC(=O)Cn1cnc2c(SCc3cccc([N+](=O)[O-])c3C)nc(O)nc21` showed an MIC of 16 µg/mL (≈ 39.7 µM). This compound also showed an inhibition at 6.25 µg/mL in experiment [3] of 0%. Further, the MIC90 in experiment [4] is > 6.25 µg/mL.
`Clc1nc(Sc2ncccn2)c2[nH]cnc2n1`: the MIC in [2] is > 12.8 µg/mL. Also, the inhibition at 6.25 µg/mL in [3] worked out at 53%. The MIC90 in [4] was > 6.25 µg/mL.
Turning to `CCCCCCCCCCSc1[nH]c(Cl)nc2ncnc1-2`, in experiment [2], the minimal inhibitory concentration (MIC) was > 12.8 µg/mL. For the same compound, in [3], the inhibition at 6.25 µg/mL is 86%. Also, the MIC90 in experiment [4] was > 6.25 µg/mL.
`CCOC(=O)Cn1cnc2c(Sc3cccc(C)c3)ncnc21` showed an inhibition at 6.25 µg/mL in experiment [3] of 0%. Besides, the MIC in experiment [9] is > 12.8 µg/mL. In addition, in experiment [4], the MIC90 is > 6.25 µg/mL.
On to `O=[N+]([O-])c1ccccc1CSc1nc(O)nc2nc[nH]c12`, for which the MIC in experiment [2] is > 16 µg/mL. This compound also showed an inhibition at 6.25 µg/mL in [3] of 61%. In addition, in experiment [4], the MIC90 was > 6.25 µg/mL.
With `Cc1ccc(Sc2[nH]cnc3ncnc2-3)cc1`, the MIC in experiment [2] was > 12.8 µg/mL. Moreover, at 12.25 µg/mL the inhibition in [8] was 65%. The MIC90 in experiment [4] is > 12.5 µg/mL.
With `CCCCCCCCCCSc1ncnc2c1ncn2CC(N)=O`, the MIC in experiment [2] came to 32 µg/mL (≈ 91.6 µM). In addition, 6.25 µg/mL produced 0% inhibition in experiment [3]. Further, in experiment [4], the MIC90 was > 6.25 µg/mL.
`CCCCCCCCCCSc1ncnc2c1ncn2CC(=O)OCc1ccccc1`: the MIC in experiment [2] is > 12.8 µg/mL. This compound also displayed an inhibition at 6.25 µg/mL in [3] of 0%. For the same compound, the MIC90 in experiment [4] is > 6.25 µg/mL.
As for `Oc1nc(SCc2ccccc2Cl)c2[nH]cnc2n1`, the minimum inhibitory concentration (MIC) in [2] was > 16 µg/mL. Besides, 6.25 µg/mL produced 62% inhibition in experiment [3]. Further, in experiment [4], the MIC90 was > 6.25 µg/mL.
Consider `CCCCCCCCCCSc1ncnc2c1ncn2CC(=O)OC(C)(C)C`, for which the SI in experiment [6] was > 3.19. In addition, the minimum inhibitory concentration (MIC) in experiment [2] was 16 µg/mL (≈ 39.4 µM). For the same compound, in experiment [3], the inhibition at 6.25 µg/mL amounted to 99%. Also, the MIC90 in experiment [4] is 3.13 µg/mL (≈ 7.7 µM).
Regarding `Clc1nc(Sc2cccc3ccccc23)c2[nH]cnc2n1`, in experiment [2], the MIC was > 12.8 µg/mL. At 6.25 µg/mL the inhibition in experiment [3] was 56%. Besides, in [4], the MIC90 is > 6.25 µg/mL.
As for `CCOC(=O)Cn1cnc2c(Sc3ccc4ccccc4c3)ncnc21`, the inhibition at 6.25 µg/mL in experiment [3] stood at 100%. For the same compound, the MIC in experiment [9] is > 12.8 µg/mL. For the same compound, the MIC90 in experiment [4] was > 6.25 µg/mL.
In the same order, the values of `Oc1nc(SCc2ccc(Cl)cc2)c2[nH]cnc2n1` are 55%, > 12.8 µg/mL and > 6.25 µg/mL.
In turn, `CCOC(=O)Cn1cnc2c(Sc3ccc(Cl)cc3)ncnc21` registered an MIC in experiment [2] of 32 µg/mL (≈ 91.7 µM). In addition, in experiment [3], the inhibition at 6.25 µg/mL was determined as 99%. Moreover, the MIC90 in [4] is > 6.25 µg/mL.
`c1ccc2cc(Sc3[nH]cnc4ncnc3-4)ccc2c1` came in with an inhibition at 12.25 µg/mL in experiment [8] of 69%. Moreover, the MIC in experiment [9] was > 12.8 µg/mL. Further, the MIC90 in [4] is > 12.5 µg/mL.
The compound `CCOC(=O)Cn1cnc2c(SCc3ccccc3)nc(O)nc21` showed an inhibition at 6.25 µg/mL in [3] of 25%. Moreover, in [4], the MIC90 is > 6.25 µg/mL. In addition, the MIC in experiment [7] amounted to 4 µg/mL (≈ 11.6 µM).
`Oc1nc(SCc2ccc(F)cc2)c2[nH]cnc2n1`: in experiment [3], the inhibition at 6.25 µg/mL came out at 52%. Moreover, in experiment [9], the minimal inhibitory concentration (MIC) was > 12.8 µg/mL. For the same compound, the MIC90 in experiment [4] was > 6.25 µg/mL.
In the case of `Clc1ccc(Sc2[nH]cnc3ncnc2-3)cc1`, the MIC in experiment [2] was > 12.8 µg/mL. This compound had an inhibition at 12.25 µg/mL in [8] of 78%. In experiment [4], the MIC90 is > 12.5 µg/mL.
Turning to `c1ccc2nc(Sc3[nH]cnc4ncnc3-4)ccc2c1`, the MIC in experiment [2] was > 12.8 µg/mL. This compound also gave an inhibition at 12.25 µg/mL in experiment [8] of 69%. Also, in experiment [4], the MIC90 is > 12.5 µg/mL.
On to `CCCCCCCCCCSc1ncnc2c1ncn2CC(=O)OCC`, for which the SI in experiment [6] is > 40. Testing at 6.25 µg/mL in experiment [3] gave an inhibition of 100%. The MIC in experiment [9] was > 12.8 µg/mL. The compound also displayed an MIC90 in experiment [4] of 1.56 µg/mL (≈ 4.12 µM).
